Laboratory results as given in patent US20240148821A1, “PHARMACEUTICAL USE OF CYCLIC PEPTIDE COMPOUND” (CHUGAI SEIYAKU KABUSHIKI KAISHA, priority 2021, published 2024).
Numbered stars: 1 amine (or outer) side, 2 acyl side, 3 side chain; on linkers, the order of the positions; unused ones are H or OH. Bridge positions count the residues as written; N and C are the ends. Square brackets hold non-standard residues; d marks the D form. Peptide text beside a SMILES is read from it. * marks the point of attachment. hPhe(3-Cl-4-CF3) = N[C@@H](CCc1ccc(C(F)(F)F)c(Cl)c1)C(=O)O; hPhe(4-CF3) = N[C@@H](CCc1ccc(C(F)(F)F)cc1)C(=O)O; NMePhe(4-CN) = CN[C@@H](Cc1ccc(C#N)cc1)C(=O)O; NMePhe(4-Cl) = CN[C@@H](Cc1ccc(Cl)cc1)C(=O)O; NMePhe(4-Me) = CN[C@@H](Cc1ccc(C)cc1)C(=O)O; NMeMet(O2) = CN[C@@H](CCS(C)(=O)=O)C(=O)O; Phe(3-Br) = N[C@@H](Cc1cccc(Br)c1)C(=O)O; NMeGly(cPent) = CN[C@H](C(=O)O)C1CCCC1; Phe(3-I) = N[C@@H](Cc1cccc(I)c1)C(=O)O; X26 = CC(C)=CC[C@H](N[*:1])C(=O)[*:2]; NMeAla(cPr) = CN[C@@H](CC1CC1)C(=O)O; Phe(2-F) = N[C@@H](Cc1ccccc1F)C(=O)O; NMe4Pal = CN[C@@H](Cc1ccncc1)C(=O)O; NMeY = CN[C@@H](Cc1ccc(O)cc1)C(=O)O; NMeCha = CN[C@@H](CC1CCCCC1)C(=O)O; NMeChg = CN[C@H](C(=O)O)C1CCCCC1; NMeD = CN[C@@H](CC(=O)O)C(=O)O; NMeL = CN[C@@H](CC(C)C)C(=O)O; NMeV = CN[C@H](C(=O)O)C(C)C; d(β3hA) = C[C@@H](N)CC(=O)O; NMeA = CN[C@@H](C)C(=O)O; NMeAib = CNC(C)(C)C(=O)O; Nle = CCCC[C@H](N)C(=O)O; Piperidide = C1CCN(*)CC1; Pra = C#CC[C@H](N)C(=O)O; Pyrrolidide = C1CCN(*)C1; Ac5c = NC1(C(=O)O)CCCC1; Aze = O=C(O)[C@@H]1CCN1; Ac4c = NC1(C(=O)O)CCC1; Aib = CC(C)(N)C(=O)O; Sar = CNCC(=O)O; Propyl = CCC*

tested on: Human pancreatic cancer cell line AsPC-1 (G12D mutation Kras); assay: AsPC-1 cell growth inhibition (AsPC-1 CGI); type: cell-based; settings: read-out: AsPC-1 cell growth inhibition, 50% growth inhibitory concentration (IC50 value); 96 hours, CellTiter-Glo, values classified in ranges
Procedure: Test compounds were serially dilated with dimethyl sulfoxide, and 200 nL was then dispensed to a U-bottom 96-well plate using Labcyte Echo. […] The cell suspension was dispensed to a. plate containing a test compound at 100 μL per well and incubated at 37° C. in a 5% carbon dioxide gas incubator. 96 hours later, 80 μL of CellTiter-Glo (Promega) was added to each well and fluorescence was measured.

**Q.** How did the IC50 turn out when `CC[C@H](C)[C@@H]1NC(=O)[C@H](CC(C)C)N(C)C(=O)C[C@@H](C(=O)N2CCCCC2)N(C)C(=O)[C@H](C2CCCCC2)N(C)C(=O)C2(CCCC2)NC(=O)[C@@H]2CCCN2C(=O)[C@H](CCc2ccc(C(F)(F)F)c(Cl)c2)NC(=O)CN(C)C(=O)[C@H](CCS(C)(=O)=O)N(C)C(=O)CN(C)C(=O)CN(C)C1=O` [Compound 1094] ([NMeL]I[Sar][Sar][NMeMet(O2)][Sar][hPhe(3-Cl-4-CF3)]P[Ac5c][NMeChg][NMeD]-Piperidide; lactam N-11) was run?
**A.** Its IC50 is greater than 500 nM.

**Q.** With `CC[C@H](C)[C@@H]1NC(=O)[C@H](CC(C)C)N(C)C(=O)C[C@@H](C(=O)N2CCCC2)N(C)C(=O)[C@H](C2CCCCC2)N(C)C(=O)C2(CCC2)NC(=O)[C@@H]2CCCN2C(=O)[C@H](CCc2ccc(C(F)(F)F)c(Cl)c2)NC(=O)CN(C)C(=O)[C@H](CC2CCCCC2)N(C)C(=O)CN(C)C(=O)CN(C)C1=O` [Compound 1894] ([NMeL]I[Sar][Sar][NMeCha][Sar][hPhe(3-Cl-4-CF3)]P[Ac4c][NMeChg][NMeD]-Pyrrolidide; lactam N-11) as the molecule, how does the IC50 read?
**A.** The IC50 was no more than 20 nM.

**Q.** `CCCOC[C@@H]1NC(=O)[C@H](CC(C)C)N(C)C(=O)C[C@@H](C(=O)N2CCCCC2)N(C)C(=O)[C@H](C2CCCCC2)N(C)C(=O)C2(CCCC2)NC(=O)[C@@H]2CCCN2C(=O)[C@H](CCc2ccc(C(F)(F)F)c(Cl)c2)NC(=O)CN(C)C(=O)[C@H](CC2CCCCC2)N(C)C(=O)CN(C)C(=O)CN(C)C1=O` [Compound 1736] ([NMeL]S(Propyl)[Sar][Sar][NMeCha][Sar][hPhe(3-Cl-4-CF3)]P[Ac5c][NMeChg][NMeD]-Piperidide; lactam N-11) was tested. Which IC50 did it give?
**A.** The IC50 was greater than 500 nM.

**Q.** `CC[C@H](C)[C@@H]1NC(=O)[C@H](C)N(C)C(=O)C[C@@H](C)NC(=O)[C@H](CC(C)C)N(C)C(=O)C(C)(C)NC(=O)[C@@H]2CCCN2C(=O)[C@H](CCc2ccc(C(F)(F)F)cc2)NC(=O)CN(C)C(=O)[C@H](Cc2ccc(Cl)cc2)N(C)C(=O)CN(C)C(=O)CN(C)C1=O` [Compound 664] (cyclo([Aib][NMeL][d(β3hA)][NMeA]I[Sar][Sar][NMePhe(4-Cl)][Sar][hPhe(4-CF3)]P)) was tested. Which IC50 did it give?
**A.** Its IC50 is greater than 500 nM.

**Q.** For `C#CC[C@@H]1NC(=O)[C@H](Cc2cccc(I)c2)NC(=O)CN(C)C(=O)[C@H](Cc2ccc(OC)cc2)N(C)C(=O)[C@@H]2CCN2C(=O)[C@H](C)N(C)C(=O)[C@H]([C@@H](C)CC)NC(=O)[C@H](CC(C)C)N(C)C(=O)C[C@@H](C(=O)N2CCCCC2)N(C)C(=O)[C@H](CC(C)C)NC(=O)C(C)(C)N(C)C1=O` [Compound 1350] ([NMeL]I[NMeA][Aze][NMeY](Me)[Sar][Phe(3-I)][Pra][NMeAib]L[NMeD]-Piperidide; lactam N-11), which IC50 is on record?
**A.** Its IC50 is greater than 500 nM.

**Q.** Which IC50 does the source give for `CC[C@H](C)[C@@H]1NC(=O)[C@H](CC(C)C)N(C)C(=O)C[C@@H](C(=O)N(C)C)N(C)C(=O)[C@H](C2CCCC2)N(C)C(=O)[C@H](C(C)C)NC(=O)[C@H](Cc2ccncc2)N(C)C(=O)[C@H](CCc2ccc(C(F)(F)F)c(Cl)c2)NC(=O)CN(C)C(=O)[C@H](CC2CCCCC2)N(C)C(=O)[C@@H]2CCN2C(=O)[C@H](C)N(C)C1=O` [Compound 1982] ([NMeL]I[NMeA][Aze][NMeCha][Sar][hPhe(3-Cl-4-CF3)][NMe4Pal]V[NMeGly(cPent)][NMeD]-NMe2; lactam N-11) here?
**A.** The IC50 was greater than 500 nM.

**Q.** For `CC[C@H](C)[C@@H]1NC(=O)[C@H](CC2CC2)N(C)C(=O)C[C@@H](C)NC(=O)[C@H](C(C)C)N(C)C(=O)C2(CCCC2)NC(=O)[C@@H]2CCCN2C(=O)[C@H](CCc2ccc(C(F)(F)F)c(Cl)c2)NC(=O)CN(C)C(=O)[C@H](CC2CCCCC2)N(C)C(=O)CN(C)C(=O)CN(C)C1=O` [Compound 248] (cyclo([Ac5c][NMeV][d(β3hA)][NMeAla(cPr)]I[Sar][Sar][NMeCha][Sar][hPhe(3-Cl-4-CF3)]P)), which IC50 is on record?
**A.** The IC50 was greater than 500 nM.

**Q.** How did the IC50 turn out when `CC[C@H](C)[C@@H]1NC(=O)[C@H](CC(C)C)N(C)C(=O)C[C@@H](C)NC(=O)[C@H](C(C)C)N(C)C(=O)C2(CCCC2)NC(=O)[C@@H]2CCCN2C(=O)[C@H](CCc2ccc(C(F)(F)F)c(Cl)c2)NC(=O)CN(C)C(=O)[C@H](Cc2ccc(C#N)cc2)N(C)C(=O)CN(C)C(=O)CN(C)C1=O` [Compound 564] (cyclo([Ac5c][NMeV][d(β3hA)][NMeL]I[Sar][Sar][NMePhe(4-CN)][Sar][hPhe(3-Cl-4-CF3)]P)) was run?
**A.** Its IC50 is greater than 500 nM.

**Q.** Which IC50 does the source give for `CC[C@H](C)[C@@H]1NC(=O)[C@H](CC(C)C)N(C)C(=O)C[C@@H](C(=O)N2CCCCC2)N(C)C(=O)[C@H](CC(C)C)NC(=O)C(C)(C)N(C)C(=O)[C@H](Cc2ccccc2F)NC(=O)[C@H](Cc2cccc(I)c2)NC(=O)CN(C)C(=O)[C@H](Cc2ccc(C)cc2)N(C)C(=O)[C@@H]2CCN2C(=O)CN(C)C1=O` [Compound 638] ([NMeL]I[Sar][Aze][NMePhe(4-Me)][Sar][Phe(3-I)][Phe(2-F)][NMeAib]L[NMeD]-Piperidide; lactam N-11) here?
**A.** Its IC50 is greater than 500 nM.

**Q.** Which IC50 does the source give for `CCCC[C@@H]1NC(=O)[C@H](Cc2cccc(Br)c2)NC(=O)CN(C)C(=O)[C@H](Cc2ccc(Cl)cc2)N(C)C(=O)CN(C)C(=O)CN(C)C(=O)[C@H]([C@@H](C)CC)NC(=O)[C@H](CC(C)C)N(C)C(=O)C[C@@H](C(=O)N2CCCCC2)N(C)C(=O)[C@H](CC(C)C)NC(=O)C(C)(C)N(C)C1=O` [Compound 1404] ([NMeL]I[Sar][Sar][NMePhe(4-Cl)][Sar][Phe(3-Br)][Nle][NMeAib]L[NMeD]-Piperidide; lactam N-11) here?
**A.** The IC50 was greater than 500 nM.

**Q.** `CC(C)=CC[C@@H]1NC(=O)[C@H](CC(C)C)N(C)C(=O)C[C@@H](C(=O)N2CCCCC2)N(C)C(=O)[C@H](C2CCCCC2)N(C)C(=O)C2(CCCC2)NC(=O)[C@@H]2CCCN2C(=O)[C@H](CCc2ccc(C(F)(F)F)c(Cl)c2)NC(=O)CN(C)C(=O)[C@H](CC2CCCCC2)N(C)C(=O)CN(C)C(=O)CN(C)C1=O` [Compound 1134] ([NMeL][X26][Sar][Sar][NMeCha][Sar][hPhe(3-Cl-4-CF3)]P[Ac5c][NMeChg][NMeD]-Piperidide; lactam N-11) was tested. Which IC50 did it give?
**A.** Its IC50 is greater than 500 nM.

**Q.** Which IC50 does the source give for `CC[C@H](C)[C@@H]1NC(=O)[C@H](C(C)C)N(C)C(=O)C[C@@H](C)NC(=O)[C@H](CC(C)C)N(C)C(=O)C2(CCCC2)NC(=O)[C@H](CC(C)C)N(C)C(=O)[C@H](CCc2ccc(C(F)(F)F)cc2)NC(=O)CN(C)C(=O)[C@H](Cc2ccc(Cl)cc2)N(C)C(=O)[C@@H]2CCN2C(=O)CN(C)C1=O` [Compound 645] (cyclo([Ac5c][NMeL][d(β3hA)][NMeV]I[Sar][Aze][NMePhe(4-Cl)][Sar][hPhe(4-CF3)][NMeL])) here?
**A.** The IC50 was greater than 500 nM.

**Q.** How did the IC50 turn out when `CC[C@H](C)[C@@H]1NC(=O)[C@H](C)N(C)C(=O)C[C@@H](C(=O)N2CCCCC2)N(C)C(=O)[C@H](C(C)C)N(C)C(=O)C2(CCCC2)NC(=O)[C@@H]2CCCN2C(=O)[C@H](CCc2ccc(C(F)(F)F)c(Cl)c2)NC(=O)[C@H]2CCCN2C(=O)[C@H](CC2CCCCC2)N(C)C(=O)CN(C)C(=O)CN(C)C1=O` [Compound 135] ([NMeA]I[Sar][Sar][NMeCha][dP][hPhe(3-Cl-4-CF3)]P[Ac5c][NMeV][NMeD]-Piperidide; lactam N-11) was run?
**A.** Its IC50 is greater than 500 nM.

**Q.** How did the IC50 turn out when `CC[C@H](C)[C@@H]1NC(=O)[C@H](CC(C)C)N(C)C(=O)C[C@@H](C(=O)N2CCCCC2)N(C)C(=O)[C@H](CC(C)C)NC(=O)C(C)(C)N(C)C(=O)[C@H](Cc2ccc(OC)cc2)NC(=O)[C@H](Cc2cccc(I)c2)NC(=O)CN(C)C(=O)[C@H](CC2CCCCC2)N(C)C(=O)[C@@H]2CCN2C(=O)[C@H](C)N(C)C1=O` [Compound 169] ([NMeL]I[NMeA][Aze][NMeCha][Sar][Phe(3-I)]Y(Me)[NMeAib]L[NMeD]-Piperidide; lactam N-11) was run?
**A.** The IC50 was greater than 500 nM.
